Data as given in article PMC6270821, “ROS-Mediated Cytotoxic Effect of Copper(II) Hydrazone Complexes against Human Glioma Cells” (Molecules, 2014).

Assays:
[1] = tested on: EB-CT-DNA; assay: Competitive binding with EB bound to CT-DNA (fluorescence); parameters: species or system calf; settings: for apparent binding constant Kapp (EB-CT-DNA): KEB 1.0 × 10^7 M^−1, [EB] = 10 µM; for number of binding sites n (EB-CT-DNA): Scatchard equation; for Stern-Volmer quenching constant Ksv (EB-CT-DNA) / binding constant K (EB-CT-DNA, Scatchard) / hypochromism in the EB-CT-DNA emission band at 602 nm: Tris-HCl pH 7.20, 25 °C; for hypochromism in the EB-CT-DNA emission band at 602 nm: complex up to 100 µM
Method: Steady-state competitive binding experiments using complexes 1 and 2were undertaken to get further proof for the binding of the complexes to DNA. The technique is based on the decrease of EB fluorescence resulting from the competitive displacement of EB from a DNA groove by a compound that competes for the same site.
The quenching data were analyzed by the Stern-Volmer equation: F0/F = Ksv[Q] + 1 (2) where F0 is the emission intensity in the absence of quencher, F is the emission intensity in the presence of quencher, Ksv is the quenching constant, and [Q] is the quencher concentration. The Ksv value is obtained as a slope from the plot of F0/F vs. [Q] [34].
The apparent binding constants (Kapp) were calculated from Equation (3): KEB [EB] = Kapp [complex] (3) where KEB is 1.0 × 10^7 M^−1, [EB] = 10 µM, and [complex] is the complex concentration when the fluorescence intensity of EB is 50%. This value is obtained from the plot F0/F vs. [complex] when F0/F = 2.
The binding constants (K) were calculated by the Scatchard Equation (4) (see Figure 6): log[(F0 − F)/F] = logK + nlog[Q] (4) where F0 and F are the fluorescence intensities of EB in the absence and presence of compound; [Q] is the compound concentration; K is the binding constant of compound with EB and n is the number of binding sites. K is the antilog of the intercept and n is the slope obtained from the plot of log[(F0 − F)/F] vs. […].
The affinity of the complexes for DNA was evaluated by a fluorescence technique using ethidium bromide (EB) bound to CT-DNA (EB-CT-DNA) solution in Tris-HCl buffer (pH = 7.20). EB is a planar cationic dye which is widely used as a sensitive fluorescence probe for native DNA. EB emits intense fluorescent light in the presence of DNA due to its strong intercalation between the adjacent DNA base-pairs. The changes in the fluorescence intensity at 602 nm (excitation at 545 nm) of EB-CT-DNA were measured with respect to the concentration of the copper(II) complexes. In fact, when it is removed, EB is non-emissive in Tris-HCl buffer solution (pH = 7.20), due to fluorescence quenching of the free EB by solvent molecules.

[2] = tested on: pUC 19 plasmid DNA; assay: Agarose gel electrophoresis of supercoiled plasmid DNA; parameters: species or system Escherichia coli; settings: 100 µM, Tris-HCl pH 7.20, 37 °C, 24 h
Method: Studies of interactions between the compounds under study and supercoiled plasmid DNA by agarose gel electrophoresis were carried out. Thus, 136 ng of purified plasmid DNA-pUC 19 from Escherichia coli (Sigma-Aldrich Brasil, São Paulo, Brazil) were incubated with compounds 1, 2 and cisplatin at 100 µM in Tris-HCl buffer (NaCl 50 mM, Tris-HCl 5 mM, pH = 7.20). The mixture was incubated at 37 °C for 24 h. Thereafter, the reactions were quenched by adding 5 µL of the loading buffer solution (50 mM Tris, pH 7.20, 0.01% bromophenol blue, 50% glycerol, and 250 mM EDTA). The samples were analyzed by 1% agarose gel electrophoresis in 0.5 × TBE buffer for 1 h 40 min at […]. The gel was stained after electrophoresis in 0.5× TBE buffer with 2.5 µg·mL^−1 ethidium bromide for 15 min and visualized by UV light.

[3] = tested on: T98 (p53 mutant glioblastoma multiforme) cells; assay: MTT cytotoxicity assay, T98 cells; assay type: cell-based, human; settings: for IC50: MTT, 48 h treatment; for selectivity index (SI = IC50MRC5/IC50tumor cell), T98: T98 vs MRC5
Method: (§1) The in vitro cytotoxic effects of H2AcMe, H2BzMe and complexes 1 and 2 against wild type p53 U87 and mutant p53 T98 glioblastoma cells and against MRC-5 fibroblasts cells were tested using cisplatin as a positive control. To determine the IC50 (concentration that inhibits 50% of cell survival) values the cytotoxic effects were quantified using the 3-(4,5-dimethyl-2-thioazolyl)-2,5-diphenyl tetrazolium bromide (MTT) colorimetric assay. All tested compounds were cytotoxic against both glioma cell lines in a dose-dependent way. The IC50 values (see Table 1) were found in the micromolar range. Despite their cytotoxic activity, all compounds were less toxic to fibroblasts cells than cisplatin. CuCl2 evoked only mild cytotoxicity in all cell lineages with IC50 higher than 100 µM.
(§2) U87 (p53 wild-type glioblastoma multiforme) and T98 (p53 mutant glioblastoma multiforme) malignant human tumor cells and MRC5 (Human Fetal Lung Fibroblast) cells were obtained from the American Type Culture Collection (ATCC, Manassas, VA, USA). Cell lines were grown as monolayer in Dulbecco’s Modified Eagle’s Medium (DMEM, Gibco, Rockville, MD, USA), supplemented with 10% fetal bovine serum (Cultilab, Campinas, São Paulo, Brazil) and antibiotics (50 U/mL penicillin/50 […] streptomycin), in a humidified atmosphere air/CO2 (95%/5%) at 37 °C. Cells 80% confluents were used in all experiments. For all experiments, cells were seeded in 96-well plates, at a density of 1000 cells/well. After 24 h incubation cells were treated.
(§3) To determine the IC50 values the cytotoxic effects were quantified using the 3-(4,5-dimethyl-2-thioazolyl)-2,5-diphenyltetrazolium bromide (MTT) colorimetric assay. Briefly, cells were treated with increasing concentrations (10^−12, 10^−11, 10^−10, 10^−9, 10^−8, 10^−7, 10^−6, 10^−5, 10^−4 mol·L^−1) of either cisplatin (positive control) or test compounds (H2AcMe, H2BzMe, 1 and 2). The compounds were previously dissolved in dimethyl sulfoxide (DMSO) and the final concentrations were adjusted in DMEM in such manner that the final DMSO concentration was lower than 0.5%. Following 48 h treatment, MTT reagent was added to each well. Following another 4 h of incubation at 37 °C, DMSO was added to each well to dissolve formazan precipitate and absorbance was measured at 570 nm. Tests using DMSO (0.5% in DMEM) as negative control were carried out in parallel. All tests were performed in quadruplicates with full agreement between the results. Statistical analysis was carried out by the unpaired, one-tailed Student’s t testing using a p value of 0.05. A value of p < 0.05 was considered significant.

[4] = tested on: MRC5 (Human Fetal Lung Fibroblast) cells; assay: MTT cytotoxicity assay, MRC5 fibroblasts; assay type: cell-based; settings: 48 h treatment
Method: as §1, §2, §3

SMILES | apparent binding constant Kapp (EB-CT-DNA) [1] [M⁻¹] | number of binding sites n (EB-CT-DNA) [1] | Stern-Volmer quenching constant Ksv (EB-CT-DNA) [1] | binding constant K (EB-CT-DNA, Scatchard) [1] | hypochromism in the EB-CT-DNA emission band at 602 nm [1] | alteration in the electrophoretic mobility of pUC 19 plasmid DNA [2] | IC50 [3] [µM] | selectivity index (SI = IC50MRC5/IC50tumor cell), T98 [3] | IC50 [4] [µM]
CC(=O)NN=C(C)c1ccccn1.[Cl][Cu][Cl] [compound 1, [dichloro(2-acetylpyridineacetyl-hydrazone)copper(II)]] | 234000 | 1.04 ± 0.01 | (2.35 ± 0.03) × 10^3 M^−1 | (0.35 ± 0.01) × 10^4 M^−1 | up to 24% | no alteration in the electrophoretic mobility | 5.08 ± 0.41 | 4.42 | 22.5 ± 3.13
CC(=O)NN=C(c1ccccc1)c1ccccn1.[Cl][Cu][Cl] [compound 2, [dichloro(2-benzoylpyridineacetylhydrazone)copper(II)]] | 207000 | 0.81 ± 0.02 | (2.05 ± 0.03) × 10^3 M^−1 | (0.38 ± 0.01) × 10^3 M^−1 | ≤ 20% | no alteration in the electrophoretic mobility | 29.4 ± 7.06 | 1.68 | 49.4 ± 8.83
